Laboratory results as given in patent US8829029B2, “Dual modulators of 5HT2A and D3 receptors” (Hoffmann-La Roche Inc., priority 2008, dated 2014).
pKi: −log10 of the molar value.

Experiments:
[1] = biological target: human 5-HT2A serotonin receptor (Homo sapiens (Human), UniProt P28223); experiment: Radioligand binding ([3H]-ketanserin) to cloned human 5-HT2A receptor expressed in HEK-293 EBNA cells; settings: membranes of transfected HEK-293 EBNA cells, 1.1 nM [3H]-ketanserin, 1 h at RT
In short: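 Membranes from transiently transfected HEK-293 EBNA cells incubated 1 h at RT with 1.1 nM [3H]-ketanserin (5-HT2A, 15 μg protein/well, Tris/MgCl2/EGTA pH 7.4) or 0.5 nM [3H]-spiperone (D3, 7.5 μg/well, Tris/NaCl/MgCl2/KCl/CaCl2 pH 7.4) plus test compound at 10 μM-0.1 nM. Nonspecific binding with 10 μM spiperone; filtration, Ki via Cheng-Prusoff.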

[2] = biological target: human D3 dopamine receptor (Homo sapiens (Human), UniProt P35462); experiment: Radioligand binding ([3H]-spiperone) to cloned human D3 receptor expressed in HEK-293 EBNA cells; settings: membranes of transfected HEK-293 EBNA cells, 0.5 nM [3H]-spiperone, 1 h at RT
human D3 dopamine receptor, sequence (P35462 whole entry): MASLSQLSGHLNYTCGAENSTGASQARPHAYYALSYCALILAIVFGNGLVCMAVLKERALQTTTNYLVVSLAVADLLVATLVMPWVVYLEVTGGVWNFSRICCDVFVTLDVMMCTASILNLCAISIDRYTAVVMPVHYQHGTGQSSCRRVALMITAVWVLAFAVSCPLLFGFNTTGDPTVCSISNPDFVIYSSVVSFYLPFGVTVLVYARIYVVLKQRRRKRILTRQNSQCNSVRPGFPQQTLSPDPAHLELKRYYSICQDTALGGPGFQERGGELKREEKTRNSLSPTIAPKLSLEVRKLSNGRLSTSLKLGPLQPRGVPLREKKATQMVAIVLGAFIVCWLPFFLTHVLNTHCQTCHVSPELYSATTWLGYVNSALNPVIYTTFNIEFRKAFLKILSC
In short: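 Membranes from HEK-293 EBNA cells transiently transfected with human D3 receptor, incubated 1 h at RT with ~0.5 nM [3H]-spiperone and ten compound concentrations (10 μM-0.1 nM); nonspecific binding with 10 μM spiperone. Filtered, scintillation counted; IC50 from four-parameter fit, Ki via Cheng-Prusoff using saturation Kd.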

## C[C@@H](O)CC(=O)N[C@H]1CC[C@H](CCN2CCC(c3noc4cc(Cl)ccc34)CC2)CC1 [Example 39, (R)-N-trans (4-{2-[4-(6-Chloro-benzo[d]isoxazol-3-yl)-piperidin-1-yl]-ethyl}-cyclohexyl)-3-hydroxy-butyramide]
[1]
  pKi: 7.89
[2]
  pKi: 7.77

## CO[C@H]1CC[C@H](CC(=O)N[C@H]2CC[C@H](CCN3CCC(c4noc5cc(Cl)ccc45)CC3)CC2)C1 [Example 41, N-trans (4-{2-[4-(6-Chloro-benzo[d]isoxazol-3-yl)-piperidin-1-yl]-ethyl}-cyclohexyl)-2-((1S,3S)-3-methoxy-cyclopentyl)-acetamide]
[1]
  pKi: 7.85
[2]
  pKi: 8.00

## CC(=O)N[C@H]1CC[C@H](CCN2CCC(c3noc4ccc(F)cc34)CC2)CC1 [Example 24, N-trans(4-{2-[4-(5-Fluoro-benzo[d]isoxazol-3-yl)-piperidin-1-yl]-ethyl}-cyclohexyl)-acetamide]
[1]
  pKi: 7.33
[2]
  pKi: 8.61

## O=C(N[C@H]1CC[C@H](CCN2CCC(c3noc4cc(F)ccc34)CC2)CC1)c1cnc(N2CCOCC2)cn1 [Example 4B, 5-Morpholin-4-yl-pyrazine-2-carboxylic acid trans (4-{2-[4-(6-fluoro-benzo[d]isoxazol-3-yl)-piperidin-1-yl]-ethyl}-cyclohexyl)-amide]
[1]
  pKi: 8.42
[2]
  pKi: 7.71

## N#CCC(=O)N[C@H]1CC[C@H](CCN2CCC(c3noc4cc(Cl)ccc34)CC2)CC1 [Example 51, N-trans-(4-{2-[4-(6-Chloro-benzo[d]isoxazol-3-yl)-piperidin-1-yl]-ethyl}-cyclohexyl)-2-cyano-acetamide]
[1]
  pKi: 7.62
[2]
  pKi: 8.09

## CO[C@@H]1CC[C@@H](CC(=O)N[C@H]2CC[C@H](CCN3CCC(c4noc5cc(F)c(F)cc45)CC3)CC2)C1 [Example 63, N-trans-(4-{2-[4-(5,6-Difluoro-benzo[d]isoxazol-3-yl)-piperidin-1-yl]-ethyl}-cyclohexyl)-2-((1R,3R)-3-methoxy-cyclopentyl)-acetamide]
[1]
  pKi: 7.88
[2]
  pKi: 7.70

## O=C(CC1CC1)N[C@H]1CC[C@H](CCN2CCC(c3noc4cc(Cl)ccc34)CC2)CC1 [Example 54, N-trans-(4-{2-[4-(6-Chloro-benzo[d]isoxazol-3-yl)-piperidin-1-yl]-ethyl}-cyclohexyl)-2-cyclopropyl-acetamide]
[1]
  pKi: 7.88
[2]
  pKi: 8.49

## O=C(N[C@H]1CC[C@H](CCN2CCC(c3noc4cc(F)ccc34)CC2)CC1)c1ccc(N2CCOCC2)nn1 [Example 4C, 6-Morpholin-4-yl-pyridazine-3-carboxylic acid-trans (4-{2-[4-(6-fluoro-benzo[d]isoxazol-3-yl)-piperidin-1-yl]-ethyl}-cyclohexyl)-amide]
[1]
  pKi: 8.50
[2]
  pKi: 7.60

## O=C(N[C@H]1CC[C@H](CCN2CCC(c3noc4cc(Cl)ccc34)CC2)CC1)C(O)C(F)(F)F (stereo partly drawn) [Example 33, N-trans-(4-{2-[4-(6-Chloro-benzo[d]isoxazol-3-yl)-piperidin-1-yl]-ethyl}-cyclohexyl)-3,3,3-trifluoro-2-hydroxy-propionamide]
[1]
  pKi: 7.66
[2]
  pKi: 7.96

## COCCC(=O)N[C@H]1CC[C@H](CCN2CCC(c3noc4cc(F)c(F)cc34)CC2)CC1 [Example 65, N-trans-(4-{2-[4-(5,6-Difluoro-benzo[d]isoxazol-3-yl)-piperidin-1-yl]-ethyl}-cyclohexyl)-3-methoxy-propionamide]
[1]
  pKi: 7.89
[2]
  pKi: 7.94

## N#CCCC(=O)N[C@H]1CC[C@H](CCN2CCC(c3noc4cc(Cl)ccc34)CC2)CC1 [Example 52, N-trans-(4-{2-[4-(6-Chloro-benzo[d]isoxazol-3-yl)-piperidin-1-yl]-ethyl}-cyclohexyl)-3-cyano-propionamide]
[1]
  pKi: 7.81
[2]
  pKi: 8.06

## O=C(N[C@H]1CC[C@H](CCN2CCC(c3noc4ccc(F)cc34)CC2)CC1)c1ccc(N2CCCCC2)cc1 [Example 27, N-trans(4-{2-[4-(5-Fluoro-benzo[d]isoxazol-3-yl)-piperidin-1-yl]-ethyl}-cyclohexyl)-4-piperidin-1-yl-benzamide]
[1]
  pKi: 8.15
[2]
  pKi: 8.11

## CC1(C)OC[C@H](CC(=O)N[C@H]2CC[C@H](CCN3CCC(c4noc5cc(Cl)ccc45)CC3)CC2)O1 [Example 40, N-trans (4-{2-[4-(6-Chloro-benzo[d]isoxazol-3-yl)-piperidin-1-yl]-ethyl}-cyclohexyl)-2-((S)-2,2-dimethyl-[1,3]dioxolan-4-yl)-acetamide]
[1]
  pKi: 7.60
[2]
  pKi: 8.22

## CO[C@]1(C)CC[C@@H](CC(=O)N[C@H]2CC[C@H](CCN3CCC(c4noc5cc(Cl)ccc45)CC3)CC2)CC1 [Example 42A, N-trans(4-{2-[4-(6-Chloro-benzo[d]isoxazol-3-yl)-piperidin-1-yl]-ethyl}-cyclohexyl)-2-(4-trans-methoxy-4-methyl-cyclohexyl)-acetamide]
[1]
  pKi: 7.80
[2]
  pKi: 8.22

## CC1CN(c2ccc(C(=O)N[C@H]3CC[C@H](CCN4CCC(c5noc6ccc(F)cc56)CC4)CC3)cc2)CC(C)O1 (stereo partly drawn) [Example 28, 4-(2,6-Dimethyl-morpholin-4-yl)-N-trans (4-{2-[4-(5-fluoro-benzo[d]isoxazol-3-yl)-piperidin-1-yl]-ethyl}-cyclohexyl)-benzamide]
[1]
  pKi: 7.00
[2]
  pKi: 7.07

## COC[C@H]1CC[C@H](CC(=O)N[C@H]2CC[C@H](CCN3CCC(c4noc5cc(Cl)ccc45)CC3)CC2)CC1 [Example 44, N-trans-(4-{2-[4-(6-Chloro-benzo[d]isoxazol-3-yl)-piperidin-1-yl]-ethyl}-cyclohexyl)-2-trans (4-methoxymethyl-cyclohexyl)-acetamide]
[1]
  pKi: 7.72
[2]
  pKi: 8.05

## O=C(N[C@H]1CC[C@H](CCN2CCC(c3noc4cc(F)ccc34)CC2)CC1)c1ccc(N2CCCCC2)cc1 [Example 14, N-trans (4-{2-[4-(6-Fluoro-benzo[d]isoxazol-3-yl)-piperidin-1-yl]-ethyl}-cyclohexyl)-4-piperidin-1-yl-benzamide]
[1]
  pKi: 8.59
[2]
  pKi: 8.06

## O=C(CC1CCCO1)N[C@H]1CC[C@H](CCN2CCC(c3noc4cc(Cl)c(F)cc34)CC2)CC1 (stereo partly drawn) [Example 61, N-trans-(4-{2-[4-(6-Chloro-5-fluoro-benzo[d]isoxazol-3-yl)-piperidin-1-yl]-ethyl}-cyclohexyl)-2-(tetrahydro-furan-2-yl)-acetamide]
[1]
  pKi: 7.51
[2]
  pKi: 7.75

## COCCC(=O)N[C@H]1CC[C@H](CCN2CCC(c3noc4cc(F)ccc34)CC2)CC1 [Example 3, N-trans (4-{2-[4-(6-Fluoro-benzo[d]isoxazol-3-yl)-piperidin-1-yl]-ethyl}-cyclohexyl)-3-methoxy-propionamide]
[1]
  pKi: 8.74
[2]
  pKi: 8.32

## O=C(CO)N[C@H]1CC[C@H](CCN2CCC(c3noc4cc(Cl)ccc34)CC2)CC1 [Example 55, N-trans-(4-{2-[4-(6-Chloro-benzo[d]isoxazol-3-yl)-piperidin-1-yl]-ethyl}-cyclohexyl)-2-hydroxy-acetamide]
[1]
  pKi: 7.82
[2]
  pKi: 7.77

## O=C(C[C@H]1CC[C@H](O)CC1)N[C@H]1CC[C@H](CCN2CCC(c3noc4cc(F)c(F)cc34)CC2)CC1 [Example 69, N-trans-(4-{2-[4-(5,6-Difluoro-benzo[d]isoxazol-3-yl)-piperidin-1-yl]-ethyl}-cyclohexyl)-2-(4-hydroxy-cyclohexyl)-acetamide]
[1]
  pKi: 8.11
[2]
  pKi: 7.68

## O=C(Cc1ccc2c(c1)OCO2)N[C@H]1CC[C@H](CCN2CCC(c3noc4cc(F)ccc34)CC2)CC1 [Example 7, 2-Benzo[1,3]dioxo1-5-yl-N-trans (4-{2-[4-(6-fluoro-benzo[d]isoxazol-3-yl)-piperidin-1-yl]-ethyl}-cyclohexyl)-acetamide]
[1]
  pKi: 8.68
[2]
  pKi: 8.40

## CC(=O)N[C@H]1CC[C@H](CCN2CCC(c3noc4cc(F)ccc34)CC2)CC1 [Example 1, 4N-trans(4-{2-[4-(6-Fluoro-benzo[d]isoxazol-3-yl)-piperidin-1-yl]-ethyl}-cyclohexyl)-acetamide]
[1]
  pKi: 8.65
[2]
  pKi: 8.30

## O=C(N[C@H]1CC[C@H](CCN2CCC(c3noc4cc(F)ccc34)CC2)CC1)c1cnc(N2CCOCC2)nc1 [Example 4D, 2-Morpholin-4-yl-pyrimidine-5-carboxylic acid trans (4-{2-[4-(6-fluoro-benzo[d]isoxazol-3-yl)-piperidin-1-yl]-ethyl}-cyclohexyl)-amide]
[1]
  pKi: 8.61
[2]
  pKi: 7.81

## COc1ccc(S(=O)(=O)N[C@H]2CC[C@H](CCN3CCC(c4noc5cc(F)ccc45)CC3)CC2)cc1 [Example 49, N-trans(4-{2-[4-(6-Fluoro-benzo[d]isoxazol-3-yl)-piperidin-1-yl]-ethyl}-cyclohexyl)-4-methoxy-benzenesulfonamide]
[1]
  pKi: 8.36
[2]
  pKi: 8.43

## O=C(C[C@@H]1CC[C@@H](O)C1)N[C@H]1CC[C@H](CCN2CCC(c3noc4cc(F)c(F)cc34)CC2)CC1 [Example 70, N-trans-(4-{2-[4-(5,6-Difluoro-benzo[d]isoxazol-3-yl)-piperidin-1-yl]-ethyl}-cyclohexyl)-2-((1R,3R)-3-hydroxy-cyclopentyl)-acetamide]
[1]
  pKi: 7.94
[2]
  pKi: 7.70

## CC(=O)N[C@H]1CC[C@H](CCN2CCC(c3noc4cc(C)ccc34)CC2)CC1 [Example 73, N-trans-(4-{2-[4-(6-Methyl-benzo[d]isoxazol-3-yl)-piperidin-1-yl]-ethyl}-cyclohexyl)-acetamide]
[1]
  pKi: 7.78
[2]
  pKi: 8.03
